In one test the target is human orexin-2 receptor (Homo sapiens (Human), UniProt O43614). As to the kind of experiment: FLIPR Ca2+ flux assay, orexin-2 receptor antagonism. In kind it is cell-based. The note with it: CHO cells; agonist 70 pM Ala-6,12 human orexin-A; read-out: hOX2R FLIPR IC50. The protocol: In a typical experiment the OX1 and OX2 receptor antagonistic activity of the compounds of the present invention was determined in accordance with the following experimental method. For intracellular calcium measurements, Chinese hamster ovary (CHO) cells expressing the rat orexin-1 receptor or the human orexin-2 receptor, are grown in Iscove's modified DMEM containing 2 mM L-glutamine, […], 1% hypoxanthine-thymidine supplement, 100 U/ml penicillin, 100 μg/ml streptomycin and 10% heat-inactivated fetal calf serum (FCS). The cells are seeded at 20,000 cells/well into Becton-Dickinson black 384-well clear bottom sterile plates coated with poly-D-lysine. All reagents were from GIBCO-Invitrogen Corp. The seeded plates are incubated overnight at 37° C. and 5% CO2. Ala-6,12 human orexin-A as the agonist is prepared as a 1 mM stock solution in 1% bovine serum albumin (BSA) and diluted in assay buffer (HBSS containing 20 mM HEPES, 0.1% BSA and 2.5 mM probenecid, pH7.4) for use in the assay at a final concentration of 70 pM. Test compounds are prepared as 10 mM stock solution in DMSO, then diluted in 384-well plates, first in DMSO, then assay buffer. On the day of the assay, cells are washed 3 times with 100 μl assay buffer and then incubated for 60 min (37° C., 5% CO2) in 60 μl assay buffer containing 1 μM Fluo-4AM ester, 0.02% pluronic acid, and 1% BSA. The dye loading solution is then aspirated and cells are washed 3 times with 100 μl assay buffer. 30 μl of that same buffer is left in each well. Within the Fluorescent Imaging Plate Reader (FLIPR, Molecular Devices), test compounds are added to the plate in a volume of 25 μl, incubated for 5 min and finally 25 μl of agonist is added. Fluorescence is measured for each well at 1 second intervals for 5 minutes and the height of each fluorescence peak is compared to the height of the fluorescence peak induced by 70 pM Ala-6,12 orexin-A with buffer in place of antagonist. […] The intrinsic orexin receptor antagonist activity of a compound which may be used in the present invention may be determined by these assays.

The next test deals with hOX1R (Homo sapiens, UniProt O43613). Description: FLIPR Ca2+ flux assay, orexin-1 receptor antagonism. It counts as cell-based. The note with it: CHO cells; agonist 70 pM Ala-6,12 human orexin-A.

Sequence of human orexin-2 receptor (O43614 whole entry): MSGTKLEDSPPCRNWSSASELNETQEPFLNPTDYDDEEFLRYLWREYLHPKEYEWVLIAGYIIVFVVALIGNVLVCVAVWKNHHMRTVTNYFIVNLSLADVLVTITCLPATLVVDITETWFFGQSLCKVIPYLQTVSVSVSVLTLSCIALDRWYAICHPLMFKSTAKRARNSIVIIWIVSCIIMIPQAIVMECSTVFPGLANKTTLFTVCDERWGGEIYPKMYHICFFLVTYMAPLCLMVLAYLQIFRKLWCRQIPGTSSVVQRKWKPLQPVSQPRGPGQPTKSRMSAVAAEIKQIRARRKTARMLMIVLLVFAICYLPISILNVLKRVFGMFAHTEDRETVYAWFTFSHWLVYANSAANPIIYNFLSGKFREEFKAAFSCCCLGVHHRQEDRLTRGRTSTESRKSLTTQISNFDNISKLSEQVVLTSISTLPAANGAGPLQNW

For the compound `COC(=O)c1c(OC)cccc1O[C@@H]1CC[C@@H](C)N(C(=O)c2ccccc2-n2ncnn2)C1` [Example 33, methyl 2-methoxy-6-{[(3R,6R)-6-methyl-1-{[2-(2H-tetrazol-2-yl)phenyl]carbonyl}piperidin-3-yl]oxy}bcnzoate], the IC50 on human orexin-2 receptor was 202 nM; at hOX1R, more than 10000 nM.

As to `COC(=O)c1c(OC)ccnc1O[C@@H]1CC[C@@H](C)N(C(=O)c2c(F)cccc2-c2noc(C)n2)C1` [Example 8, methyl 2-{[(3R,6R)-1-{[2-fluoro-6-(5-methyl-1,2,4-oxadiazol-3-yl)phenyl]carbonyl}-6-methylpiperidin-3-yl]oxy}-4-methoxypyridine-3-carboxylate], the IC50 at human orexin-2 receptor amounted to 71.1 nM; at hOX1R it was 10000 nM.

On to `COC(=O)c1c(OC)ccnc1O[C@@H]1CC[C@@H](C)N(C(=O)c2cccc(C)c2-n2nccn2)C1` [Example 14, methyl 4-methoxy-2-{[(3R,6R)-6-methyl-1-{[3-methyl-2-(2H-1,2,3-triazol-2-yl)phenyl]carbonyl}piperidin-3-yl]oxy}pyridine-3-carboxylate], for which the IC50 amounted to 37.9 nM on human orexin-2 receptor and 777 nM at hOX1R.

`COC(=O)c1c(OC)ccnc1O[C@@H]1CC[C@@H](C)N(C(=O)c2cccc(F)c2-n2nccn2)C1` [Example 2, Methyl 2-{[(3R,6R)-1-{[3-fluoro-2-(2H-1,2,3-triazol-2-yl)phenyl]carbonyl}-6-methylpiperidin-3-yl]oxy}-4-methoxypyridine-3-carboxylate]: the results for the IC50 on human orexin-2 receptor and on hOX1R were 37 nM and 2900 nM, respectively.

Turning to `COC(=O)c1c(OC)ccnc1O[C@@H]1CC[C@@H](C)N(C(=O)c2ccc(F)cc2-c2nc(C)no2)C1` [Example 5, methyl 2-{[(3R,6R)-1-{[4-fluoro-2-(3-methyl-1,2,4-oxadiazol-5-yl)phenyl]carbonyl}-6-methylpiperidin-3-yl]oxy}-4-methoxypyridine-3-carboxylate], the IC50 on human orexin-2 receptor was determined as 52 nM; at hOX1R, 3100 nM.

`COC(=O)c1c(OC)ccnc1O[C@@H]1CC[C@@H](C)N(C(=O)c2cccc(F)c2-c2nc(C)no2)C1` [Example 18, methyl 2-{[(3R,6R)-1-{[3-fluoro-2-(3-methyl-1,2,4-oxadiazol-5-yl)phenyl]carbonyl}-6-methylpiperidin-3-yl]oxy}-4-methoxypyridine-3-carboxylate]: the IC50 on human orexin-2 receptor worked out at 39.5 nM; at hOX1R, 932 nM.

Take `COC(=O)c1c(OC)ccnc1O[C@@H]1CC[C@@H](C)N(C(=O)c2ccccc2-n2ncnn2)C1` [Example 23, Methyl 4-methoxy-2-{[(3R,6R)-6-methyl-1-{[2-(2H-tetrazol-2-yl)phenyl]carbonyl}piperidin-3-yl]oxy}pyridine-3-carboxylate]: the concentration for half-maximal inhibition (IC50) at human orexin-2 receptor came out at 27.7 nM; at hOX1R it was 2140 nM.

For `CCOc1ccnc(O[C@@H]2CC[C@@H](C)N(C(=O)c3ccccc3-n3nccn3)C2)c1C(=O)OC` [Example 27, Methyl 4-ethoxy-2-{[(3R,6R)-6-methyl-1-{[2-(2H-1,2,3-triazol-2-yl)phenyl]carbonyl}piperidin-3-yl]oxy}pyridine-3-carboxylate], the IC50 on human orexin-2 receptor was 167 nM; at hOX1R it was 7000 nM.

`COC(=O)c1c(OC)ccnc1O[C@@H]1CC[C@@H](C)N(C(=O)c2ccccc2-n2nccn2)C1` [Example 1, Methyl 4-methoxy-2-{[(3R,6R)-6-methyl-1-{[2-(2H-1,2,3-triazol-2-yl)phenyl]carbonyl}piperidin-3-yl]oxy}pyridine-3-carboxylate]: the values for the IC50 at human orexin-2 receptor and on hOX1R were 33 nM and 1340 nM, respectively.

In the case of `CCOC(=O)c1c(OC)ccnc1O[C@@H]1CC[C@@H](C)N(C(=O)c2ccccc2-n2nccn2)C1` [Example 25, ethyl 4-methoxy-2-{[(3R,6R)-6-methyl-1-{[2-(2H-1,2,3-triazol-2-yl)phenyl]carbonyl}piperidin-3-yl]oxy}pyridine-3-carboxylate], the IC50 on human orexin-2 receptor was found to be 19.3 nM; at hOX1R, 814 nM.

`CCOC(=O)c1c(OC)ccnc1O[C@@H]1CC[C@@H](C)N(C(=O)c2cccc(F)c2-n2nccn2)C1` [Example 26]: the IC50 was found to be 39.6 nM on human orexin-2 receptor and 2790 nM at hOX1R.

For `COC(=O)c1c(OC)cccc1O[C@@H]1CC[C@@H](C)N(C(=O)c2ccccc2-n2nccn2)C1` [Example 31, Methyl 2-methoxy-6-{[(3R,6R)-6-methyl-1-{[2-(2H-1,2,3-triazol-2-yl)phenyl]carbonyl}piperidin-3-yl]oxy}benzoate], the IC50 at human orexin-2 receptor is 25 nM; on hOX1R, more than 10000 nM.

In the case of `COC(=O)c1c(OC)ccnc1O[C@@H]1CC[C@@H](C)N(C(=O)c2ccccc2-c2ncccn2)C1` [Example 19], the results for the IC50 at human orexin-2 receptor and on hOX1R were 114 nM and 1870 nM, respectively.

On to `COC(=O)c1c(OC)ccnc1O[C@@H]1CC[C@@H](C)N(C(=O)c2c(F)cccc2-n2nccn2)C1` [Example 6, methyl 2-{[(3R,6R)-1-{[2-fluoro-6-(2H-1,2,3-triazol-2-yl)phenyl]carbonyl}-6-methylpiperidin-3-yl]oxy}-4-methoxypyridine-3-carboxylate], for which the figures for the IC50 on human orexin-2 receptor and at hOX1R were 82.9 nM and 2310 nM, respectively.

Turning to `COC(=O)c1c(OC)ccnc1O[C@@H]1CC[C@@H](C)N(C(=O)c2ccc(F)cc2-c2ncccn2)C1` [Example 21, methyl 2-({(3R,6R)-1-[(4-fluoro-2-pyrimidin-2-ylphenyl)carbonyl]-6-methylpiperidin-3-yl}oxy)-4-methoxypyridine-3-carboxylate], the IC50 on human orexin-2 receptor amounted to 71.2 nM; at hOX1R, 1460 nM.

With `COC(=O)c1c(OC)ccnc1O[C@@H]1CC[C@@H](C)N(C(=O)c2cc(F)ccc2-n2nccn2)C1` [Example 7, methyl 2-{[(3R,6R)-1-{[5-fluoro-2-(2H-1,2,3-triazol-2-yl)phenyl]carbonyl}-6-methylpiperidin-3-yl]oxy}-4-methoxypyridine-3-carboxylate], the half-inhibitory concentration (IC50) stood at 27.6 nM on human orexin-2 receptor and 1460 nM at hOX1R.

With `COC(=O)c1c(OC)cccc1O[C@@H]1CC[C@@H](C)N(C(=O)c2ccsc2-n2nccn2)C1` [Example 32, methyl 2-methoxy-6-{[(3R,6R)-6-methyl-1-{[2-(2H-1,2,3-triazol-2-yl)thiophen-3-yl]carbonyl}piperidin-3-yl]oxy}benzoate], the figures for the IC50 on human orexin-2 receptor and on hOX1R were 61 nM and more than 10000 nM, respectively.

Consider `COC(=O)c1c(OC)ccnc1O[C@@H]1CC[C@@H](C)N(C(=O)c2cccc(F)c2-c2noc(C)n2)C1` [Example 11, methyl 2-{[(3R,6R)-1-{[3-fluoro-2-(5-methyl-1,2,4-oxadiazol-3-yl)phenyl]carbonyl}-6-methylpiperidin-3-yl]oxy}-4-methoxypyridine-3-carboxylate], for which the results for the IC50 at human orexin-2 receptor and at hOX1R were 31.8 nM and 2270 nM, respectively.

With `COC(=O)c1c(OC)ccnc1O[C@@H]1CC[C@@H](C)N(C(=O)c2ccc(OC)cc2-n2nccn2)C1` [Example 15, methyl 4-methoxy-2-{[(3R,6R)-1-{[4-methoxy-2-(2H-1,2,3-triazol-2-yl)phenyl]carbonyl}-6-methylpiperidin-3-yl]oxy}pyridine-3-carboxylate], the figures for the IC50 at human orexin-2 receptor and on hOX1R were 51 nM and 10000 nM, respectively.

Compound `COC(=O)c1c(OC)ccnc1O[C@@H]1CC[C@@H](C)N(C(=O)c2c(F)cccc2-c2nc(C)no2)C1` [Example 12, methyl 2-{[(3R,6R)-1-{[2-fluoro-6-(3-methyl-1,2,4-oxadiazol-5-yl)phenyl]carbonyl}-6-methylpiperidin-3-yl]oxy}-4-methoxypyridine-3-carboxylate] returned an IC50 on hOX1R of 4470 nM.

As for `COC(=O)c1c(OC)cccc1O[C@@H]1CC[C@@H](C)N(C(=O)c2ccccc2-c2ncccn2)C1` [Example 35, methyl 2-methoxy-6-({(3R,6R)-6-methyl-1-[(2-pyrimidin-2-ylphenyl)carbonyl]piperidin-3-yl}oxy)benzoate], the IC50 is 35 nM on human orexin-2 receptor and more than 10000 nM on hOX1R.

Turning to `CCOC(=O)c1c(OCC)ccnc1O[C@@H]1CC[C@@H](C)N(C(=O)c2ccccc2-n2ncnn2)C1` [Example 28, Ethyl 4-ethoxy-2-{[(3R,6R)-6-methyl-1-{[2-(2H-tetrazol-2-yl)phenyl]carbonyl}piperidin-3-yl]oxy}pyridine-3-carboxylate], the IC50 was 18 nM at human orexin-2 receptor and 4130 nM at hOX1R.

For the compound `COC(=O)c1c(OC)ccnc1O[C@@H]1CC[C@@H](C)N(C(=O)c2ccc(F)cc2-c2noc(C)n2)C1` [Example 10, methyl 2-{[(3R,6R)-1-{[4-fluoro-2-(5-methyl-1,2,4-oxadiazol-3-yl)phenyl]carbonyl}-6-methylpiperidin-3-yl]oxy}-4-methoxypyridine-3-carboxylate], the figures for the IC50 on human orexin-2 receptor and on hOX1R were 58.7 nM and 10000 nM, respectively.

(Values after US9975876B2, “2-pyridyloxy-3-ester-4-ether orexin receptor antagonists” (MERCK SHARP & DOHME CORP., priority 2013, dated 2018).)
